Laboratory results: US20130005568A1, “SAFENED HERBICIDAL MIXTURES” (E.I. DU PONT DE NEMOURS AND COMPANY, priority 2011, published 2013)

Key:
[1] = system: Pioneer 39K40 hybrid maize; test: Test C: visual plant response rating, postemergence acetohydroxy acid synthase-inhibiting herbicides alone and with Compound 1; type: in vivo, Zea mays L. spp. indentata Sturt.; settings: greenhouse, two weeks, 0-100 scale
Description: (§1) For all of the following biological tests, plant response ratings were based on a 0-100 scale where zero is growth equivalent to that of untreated plants (no plant response) and 100 represents no additional growth occurring after herbicide treatment.
Herbicide mixtures were dissolved/dispersed in a non-phytotoxic liquid carrier and were sprayed postemergence to Pioneer 39K40 hybrid maize (Zea mays L. spp. indentata Sturt.) in the third collar growth stage (extended leaf height was 40-60 cm). Treated plants were grown under greenhouse conditions for two weeks before visual evaluations of plant responses were recorded.

blackgrass [2] = test: Test F: preemergence plant response rating; type: in vivo, Alopecurus myosuroides Huds; settings: blackgrass, preemergence, greenhouse, three weeks, 0-100 scale
Description: as §1
(§2) Herbicide mixtures were formulated, dissolved/dispersed in water, and sprayed preemergence to the crops: winter wheat (Triticum aestivum L.) and winter barley (Hordeum vulgare L.), and the weed: blackgrass (Alopecurus myosuroides Huds). Treated plants were grown under greenhouse conditions for three weeks before visual evaluations of plant responses were recorded.

winter barley [3] = test: Test F: preemergence plant response rating; type: in vivo, Hordeum vulgare L.; settings: winter barley, preemergence, greenhouse, three weeks, 0-100 scale
Description: as §1, §2

pigweed = test: Test E: postemergence plant response rating; type: in vivo, Amaranthus retroflexus L.; settings: pigweed, postemergence, greenhouse, two weeks, 0-100 scale
Description: as §1
(§3) Herbicide mixtures were formulated, dissolved/dispersed in water containing 0.25% non-ionic surfactant, sprayed postemergence to the crops: winter wheat (Triticum aestivum L.), spring wheat (Triticum aestivum L.), winter barley (Hordeum vulgare L.) and spring barley (Hordeum vulgare L.), and the weeds: blackgrass (Alopecurus myosuroides Huds.), lambsquarters (Chenopodium album L.) and pigweed (Amaranthus retroflexus L.). Treated plants were grown under greenhouse conditions for two weeks before visual evaluations of plant responses were recorded.

spring barley = test: Test E: postemergence plant response rating; type: in vivo, Hordeum vulgare L.; settings: spring barley, postemergence, greenhouse, two weeks, 0-100 scale
Description: as §1, §3

winter barley [4] = test: Test E: postemergence plant response rating; type: in vivo, Hordeum vulgare L.; settings: winter barley, postemergence, greenhouse, two weeks, 0-100 scale
Description: as §1, §3

lambsquarters = test: Test E: postemergence plant response rating; type: in vivo, Chenopodium album L.; settings: lambsquarters, postemergence, greenhouse, two weeks, 0-100 scale
Description: as §1, §3

spring wheat = test: Test E: postemergence plant response rating; type: in vivo, Triticum aestivum L.; settings: spring wheat, postemergence, greenhouse, two weeks, 0-100 scale
Description: as §1, §3

winter wheat [5] = test: Test E: postemergence plant response rating; type: in vivo, Triticum aestivum L.; settings: winter wheat, postemergence, greenhouse, two weeks, 0-100 scale
Description: as §1, §3

blackgrass [6] = test: Test E: postemergence plant response rating; type: in vivo, Alopecurus myosuroides Huds.; settings: blackgrass, postemergence, greenhouse, two weeks, 0-100 scale
Description: as §1, §3

winter wheat [7] = test: Test F: preemergence plant response rating; type: in vivo, Triticum aestivum L.; settings: winter wheat, preemergence, greenhouse, three weeks, 0-100 scale
Description: as §1, §2

[8] = herbicide 32 g ai/ha + Compound 1 125 g ai/ha
[9] = herbicide 64 g ai/ha + Compound 1 125 g ai/ha
[10] = herbicide 10 g ai/ha + Compound 1 125 g ai/ha
[11] = herbicide 20 g ai/ha + Compound 1 125 g ai/ha
[12] = herbicide 17.5 g ai/ha + Compound 1 125 g ai/ha
[13] = herbicide 35 g ai/ha + Compound 1 125 g ai/ha

CCOC(=O)c1ccccc1S(=O)(=O)NC(=O)Nc1nc(Cl)cc(OC)n1 [Chlorimuron-ethyl, chlorimuron-ethyl]
Observed Response, Herbicide mixture with Compound 1 ([1]; herbicide 8 g ai/ha + Compound 1 125 g ai/ha): 53
Observed Response, Herbicide alone ([1]; herbicide 8 g ai/ha): 96

COC(=O)c1ccc(C(F)(F)F)nc1S(=O)(=O)NC(=O)Nc1nc(OC)cc(OC)n1 [Flupyrsulfuron-methyl-sodium, flupyrsulfuron-methyl-sodium]
Observed Response, Herbicide mixture with Compound 1 (blackgrass [2]; [8]): 90
Observed Response, Herbicide alone (blackgrass [2]; herbicide 32 g ai/ha): 95
Observed Response, Herbicide mixture with Compound 1 (blackgrass [2]; [9]): 97
Observed Response, Herbicide alone (blackgrass [2]; herbicide 64 g ai/ha): 95
Observed Response, Herbicide mixture with Compound 1 (winter barley [3]; [8]): 40
Observed Response, Herbicide alone (winter barley [3]; herbicide 32 g ai/ha): 75
Observed Response, Herbicide mixture with Compound 1 (winter barley [3]; [9]): 35
Observed Response, Herbicide alone (winter barley [3]; herbicide 64 g ai/ha): 90
Observed Response, Herbicide mixture with Compound 1 (pigweed; [10]): 96
Observed Response, Herbicide alone (pigweed; herbicide 10 g ai/ha): 100
Observed Response, Herbicide mixture with Compound 1 (pigweed; [11]): 97
Observed Response, Herbicide alone (pigweed; herbicide 20 g ai/ha): 99
Observed Response, Herbicide mixture with Compound 1 (spring barley; [10]): 23
Observed Response, Herbicide alone (spring barley; herbicide 10 g ai/ha): 47
Observed Response, Herbicide mixture with Compound 1 (spring barley; [11]): 43
Observed Response, Herbicide alone (spring barley; herbicide 20 g ai/ha): 53
Observed Response, Herbicide mixture with Compound 1 (winter barley [4]; [10]): 12
Observed Response, Herbicide alone (winter barley [4]; herbicide 10 g ai/ha): 42
Observed Response, Herbicide mixture with Compound 1 (winter barley [4]; [11]): 27
Observed Response, Herbicide alone (winter barley [4]; herbicide 20 g ai/ha): 42
Observed Response, Herbicide mixture with Compound 1 (lambsquarters; [10]): 83
Observed Response, Herbicide alone (lambsquarters; herbicide 10 g ai/ha): 78
Observed Response, Herbicide mixture with Compound 1 (lambsquarters; [11]): 87
Observed Response, Herbicide alone (lambsquarters; herbicide 20 g ai/ha): 87
Observed Response, Herbicide mixture with Compound 1 (spring wheat; [10]): 3
Observed Response, Herbicide alone (spring wheat; herbicide 10 g ai/ha): 18
Observed Response, Herbicide mixture with Compound 1 (spring wheat; [11]): 0
Observed Response, Herbicide alone (spring wheat; herbicide 20 g ai/ha): 22
Observed Response, Herbicide mixture with Compound 1 (winter wheat [5]; [10]): 0
Observed Response, Herbicide alone (winter wheat [5]; herbicide 10 g ai/ha): 17
Observed Response, Herbicide mixture with Compound 1 (winter wheat [5]; [11]): 0
Observed Response, Herbicide alone (winter wheat [5]; herbicide 20 g ai/ha): 18
Observed Response, Herbicide mixture with Compound 1 (blackgrass [6]; [10]): 99
Observed Response, Herbicide alone (blackgrass [6]; herbicide 10 g ai/ha): 98
Observed Response, Herbicide mixture with Compound 1 (blackgrass [6]; [11]): 99
Observed Response, Herbicide alone (blackgrass [6]; herbicide 20 g ai/ha): 99
Observed Response, Herbicide mixture with Compound 1 (winter wheat [7]; [8]): 10
Observed Response, Herbicide alone (winter wheat [7]; herbicide 32 g ai/ha): 30
Observed Response, Herbicide mixture with Compound 1 (winter wheat [7]; [9]): 33
Observed Response, Herbicide alone (winter wheat [7]; herbicide 64 g ai/ha): 40

COC(=O)c1c(Cl)nn(C)c1S(=O)(=O)NC(=O)Nc1nc(OC)cc(OC)n1 [Halosulfuron-methyl, halosulfuron-methyl]
Observed Response, Herbicide mixture with Compound 1 [1, 12]: 10
Observed Response, Herbicide alone ([1]; herbicide 17.5 g ai/ha): 37

CC(C)C1(C)N=C(c2nc3ccccc3cc2C(=O)O)NC1=O (centres unmarked) [Imazaquin, imazaquin]
Observed Response, Herbicide mixture with Compound 1 [1, 12]: 100
Observed Response, Herbicide alone ([1]; herbicide 17.5 g ai/ha): 100

COC(=O)c1ccc(I)cc1S(=O)(=O)NC(=O)Nc1nc(C)nc(OC)n1 [Iodosulfuron-methyl, iodosulfuron-methyl]
Observed Response, Herbicide mixture with Compound 1 [1, 12]: 57
Observed Response, Herbicide alone ([1]; herbicide 17.5 g ai/ha): 100

COC(=O)c1ccc(CNS(C)(=O)=O)cc1S(=O)(=O)NC(=O)Nc1nc(OC)cc(OC)n1 [Mesosulfuron-methyl, mesosulfuron-methyl]
Observed Response, Herbicide mixture with Compound 1 [1, 12]: 100
Observed Response, Herbicide alone ([1]; herbicide 17.5 g ai/ha): 100

CCCOc1nn(C(=O)[N-]S(=O)(=O)c2ccccc2C(=O)OC)c(=O)n1C.[Na+] [Propoxycarbazone-sodium, propoxycarbazone]
Observed Response, Herbicide mixture with Compound 1 [1, 13]: 100
Observed Response, Herbicide alone ([1]; herbicide 35 g ai/ha): 100

COC(=O)c1cccc(C)c1S(=O)(=O)NC(=O)Nc1nc(OCC(F)(F)F)nc(N(C)C)n1 [Triflusulfuron-methyl, triflusulfuron-methyl]
Observed Response, Herbicide mixture with Compound 1 [1, 13]: 100
Observed Response, Herbicide alone ([1]; herbicide 35 g ai/ha): 100

Imazamethabenz
Observed Response, Herbicide mixture with Compound 1 [1, 12]: 100
Observed Response, Herbicide alone ([1]; herbicide 17.5 g ai/ha): 100
